Experimental data published in US11273193B2, “Synergistic composition as a promoter of autophagy” (GIULIANI S.P.A., priority 2017, dated 2022).
“Also recorded” adds a separate entry of the source.

Tests used:
Format in all cases: cell-based, human
[1] = system: p62/SQSTM1; test: Immunoblot analysis of p62 protein levels in U2OS cells; conditions: immunoblot normalized to GAPDH, spermidine 0.5 μM, biotin 19.91 ng/ml, Galeopsis 7.9 ng/ml
Description: U2OS cells were grown to 80% confluence in Dulbecco Modified Eagle's Medium High Glucose (4.5 g/ID-Glucose) containing 4 mM L-glutamine, 10% fetal bovine serum (FBS) and treated with Spermidine (Lot. 2010112716), Galeopsis segetum (IDN 6781), Biotin (Lot. 2014124160) or their combinations. Protein samples were extracted in RIPA buffer as previously reported (De Mei C, Ercolani L, Parodi C, Veronesi M, Vecchio C L, Bottegoni G, et al. Dual inhibition of REV-ERBβ and autophagy as a novel pharmacological approach to induce cytotoxicity in cancer cells. Oncogene. 2015; 34(20):2597-608). p62/SQSTM1 and GAPDH levels were analyzed with anti-p62/SQSTM1 and anti-GADPH specific antibodies. Immunoblot experiments were performed in TBS-T buffer containing 5% bovine serum albumin (BSA). […] and anti-GAPDH antibodies were diluted 1:1000 and 1:50000, respectively. Complementary HPR-conjugated secondary antibodies were diluted 1:10000. Upon reaction with ECL Western blotting detection reagent, chemiluminescent signals were acquired with a LAS-4000 luminescent image analyzer and optical density of specific band signal was calculated with Photoshop image analysis software. GAPDH was adopted as a loading control and GAPDH signals were used to normalize p62 protein levels among different samples.
Immunoblots were repeated at least 4 times in order to express value as mean±SEM. […]

[2] = system: LC3; test: Live fluorescent microscopy of LC3-RFP dots (autophagosome accumulation) in U2OS cells; conditions: U2OS cells transduced with LC3-RFP, 6 h; biotin 200 ng/ml, Galeopsis dry extract 100 ng/ml, spermidine 10 μM; FIG. 1
Text: In order to evaluate whether biotin and/or Galeopsis segetum extract may affect autophagy, the inventors monitored the accumulation of autophagosome in cultured U2OS cells by live fluorescent microscopy (Klionsky D J, Abdelmohsen K, Abe A, Abedin M J, Abeliovich H, Acevedo Arozena A, et al. Guidelines for the use and interpretation of assays for monitoring autophagy. Autophagy. 2016; 12(1):1-222). Thus, cells were trasduced with construct containing the autophagy protein, LC3, fused with a Red Fluorescent Protein (RFP). Then, accumulation of fluorescent LC3 dots upon addition of biotin (200 ng/ml) or Galeopsis dry extract (100 ng/ml) was monitored by acquiring images every 30 min for 6 h. Spermidine (10 μM) was adopted as a positive control of an autophagy inducer compound (Pietrocola F, Lachkar S, Enot D, Niso-Santano M, Bravo-San Pedro J, Sica V, et al. Spermidine induces autophagy by inhibiting the acetyltransferase EP300. Cell Death & Differentiation. 2015; 22(3):509-16).
Both biotin and Galeopsis segetum dry extract produced a similar accumulation of LC3-red dots.

[3] = system: SQSTM1/p62; test: Live fluorescent microscopy of p62-RFP dots (autophagy-mediated p62 degradation) in U2OS cells; conditions: U2OS cells transduced with p62-RFP; FIG. 2
Description: U2OS cells were seeded 3000 cells/well in 48-well plates, No. 1.5 Uncoated Coverslip, 6 mm glass diameter, previously coated with gelatin solution, and transduced with 0.2 ul di baculovirus/10 000 cells containing a chimeric protein p62-Red Fluorescent Protein (p62-RFP). At 48 h post-transduction the cells were treated with Spermidine, Biotin, Galeopsis, or vehicle and monitored for 24 h using NIKON Live Cell Imaging microscopy.
Because LC3-RFP dots may also accumulate upon a blockade of the autophagic flux, the autophagy-dependent degradation of the SQSTM1/p62 protein (Klionsky D J, Abdelmohsen K, Abe A, Abedin M J, Abeliovich H, Acevedo Arozena A, et al. Guidelines for the use and interpretation of assays for monitoring autophagy. Autophagy. 2016; 12(1):1-222) was thus monitored. p62 served as a link between LC3 and ubiquitinated substrates (Pankiv S, Clausen T H, Lamark T, Brech A, Bruun J-A, Outzen H, et al. p62/SQSTM1 binds directly to Atg8/LC3 to facilitate degradation of ubiquitinated protein aggregates by autophagy. Journal of Biological Chemistry. […]
Accordingly, the effects of biotin and Galeopsis on autophagy-mediated p62 degradation was evaluated analyzing the number of p62-RFP autophagosomes by live fluorescent microscopy. […] Then, p62 fluorescent dots were monitored upon addition of biotin, Galeopsis, spermidine or vehicle.

[4] = system: SQSTM1; test: Immunoblot of SQSTM1 in U2OS cells, Example 14; conditions: 100 μM, 6 h, normalized by ACTIN, FIG. 3
Description: (§1) The levels of lipidated LC3 and SQSTM1 in human U2OS cells treated with equimolar doses of N1-methylspermidine and spermidine were evaluated. […] Specifically cultured human U2OS cells were treated 6 h with vehicle or equimolar doses of spermidine and N^1-methylspermidine (100 μM). The levels of lipidated LC3 (LC3-II) and SQSTM1 were then assessed by immunoblotting analysis as in example 8 with specific antibody. Actin signals were adopted as a loading control. Densitometry analysis of protein signals is reported as relative protein levels normalized by ACTIN. Vehicle sample value was set to 1. Shown as mean±SEM., n=3. *P<0.05 and **P<0.01, compounds versus vehicle.

[5] = system: lipidated LC3 (LC3-II); test: Immunoblot of lipidated LC3 (LC3-II) in U2OS cells, Example 14; conditions: 100 μM, 6 h, normalized by ACTIN, FIG. 3
Description: as §1

| SMILES | Percentage of p62 reduction versus vehicle (% ± SEM) [1] [%] | accumulation of fluorescent LC3 dots (autophagosomes) [2] | reduction of p62-RFP fluorescent dots / signals versus vehicle [3] | autophagy-mediated degradation of SQSTM1 compared with vehicle [4] | levels of the lipidated LC3-II form compared with vehicle [5] |
| --- | --- | --- | --- | --- | --- |
| O=C(O)CCCC[C@@H]1SC[C@@H]2NC(=O)N[C@@H]21 [Biotin, 5-[(3aS,4S,6aR)-2-oxohexahydro-1H-thieno[3,4-d]imidazole-4-yl]pentanoic acid] | 21 ± 1.5 | marked accumulation of fluorescent LC3 dots | drastic reduction of p62-RFP dots; also recorded: strong reduction of p62 fluorescent signals |  |  |
| CNCCCNCCCCN [N1-methylspermidine] |  |  |  | stimulated autophagy-mediated degradation of SQSTM1 | increased the levels of the lipidated LC3-II form |
| NCCCCNCCCN [Spermidine, N′-(3-aminopropyl)butane-1,4-diamine] | 5 ± 0.11 | marked accumulation of LC3 fluorescent dots | markedly reduced p62 fluorescent dots and fluorescent signals | stimulated autophagy-mediated degradation of SQSTM1 | increased the levels of the lipidated LC3-II form |
